Read-outs that look alike come from different tables or passages of the source.
Experiments:
[1] = target: human TLR7 (Homo sapiens (Human), UniProt Q9NYK1); assay: TLR7 inhibition reporter assay (HEK-Blue SEAP); assay type: cell-based
[2] = target: human TLR8 (Homo sapiens (Human), UniProt Q9NR97); assay: TLR8 inhibition reporter assay (HEK-Blue SEAP); details: read-out: TLR8 IC50;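 note: SEAP driven by IFN-β minimal promoter carrying NF-κB and AP-1 sites, compounds dosed 0.05 nM to 50 µM for 22 h, inhibition scaled between agonist-plus-DMSO and reference-inhibitor wells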
Sequence of human TLR8 (Q9NR97 27-1041): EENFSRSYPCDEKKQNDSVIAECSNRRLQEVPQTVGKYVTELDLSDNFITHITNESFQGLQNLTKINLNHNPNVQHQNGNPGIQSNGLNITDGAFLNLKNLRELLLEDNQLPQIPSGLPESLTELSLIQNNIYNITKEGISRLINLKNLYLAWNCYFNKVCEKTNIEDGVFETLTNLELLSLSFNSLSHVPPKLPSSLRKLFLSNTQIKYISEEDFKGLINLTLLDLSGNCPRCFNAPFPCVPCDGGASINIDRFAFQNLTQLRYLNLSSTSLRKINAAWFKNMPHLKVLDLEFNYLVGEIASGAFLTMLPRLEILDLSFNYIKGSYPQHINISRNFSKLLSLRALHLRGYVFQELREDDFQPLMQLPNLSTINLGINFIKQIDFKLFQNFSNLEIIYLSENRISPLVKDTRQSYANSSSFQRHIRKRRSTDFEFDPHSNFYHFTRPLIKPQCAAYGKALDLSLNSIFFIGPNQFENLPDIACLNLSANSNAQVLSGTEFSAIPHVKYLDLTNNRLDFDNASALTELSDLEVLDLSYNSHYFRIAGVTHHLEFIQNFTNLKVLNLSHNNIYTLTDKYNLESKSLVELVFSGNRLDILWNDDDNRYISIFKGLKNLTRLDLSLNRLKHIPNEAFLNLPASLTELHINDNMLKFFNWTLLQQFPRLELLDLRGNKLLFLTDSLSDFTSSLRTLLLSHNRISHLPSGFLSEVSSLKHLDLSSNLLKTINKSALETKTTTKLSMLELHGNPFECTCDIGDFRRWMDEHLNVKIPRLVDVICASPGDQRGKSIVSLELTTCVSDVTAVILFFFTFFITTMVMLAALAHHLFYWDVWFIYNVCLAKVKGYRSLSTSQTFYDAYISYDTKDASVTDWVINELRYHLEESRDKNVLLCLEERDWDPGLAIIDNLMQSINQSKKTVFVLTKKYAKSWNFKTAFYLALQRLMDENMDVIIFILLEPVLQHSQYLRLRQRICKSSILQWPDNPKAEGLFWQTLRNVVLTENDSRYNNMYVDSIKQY

[3] = target: human TLR9 (Homo sapiens (Human), UniProt Q9NR96); assay: TLR9 inhibition reporter assay (HEK-Blue SEAP); details: read-out: TLR9 IC50;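 note: SEAP driven by an IFN-β minimal promoter with NF-κB and AP-1 sites, read after 22 h, compounds dosed 0.05 nM–50 µM, inhibition scaled between agonist plus DMSO and reference-inhibitor wells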
Sequence of human TLR9 (Q9NR96 26-1032): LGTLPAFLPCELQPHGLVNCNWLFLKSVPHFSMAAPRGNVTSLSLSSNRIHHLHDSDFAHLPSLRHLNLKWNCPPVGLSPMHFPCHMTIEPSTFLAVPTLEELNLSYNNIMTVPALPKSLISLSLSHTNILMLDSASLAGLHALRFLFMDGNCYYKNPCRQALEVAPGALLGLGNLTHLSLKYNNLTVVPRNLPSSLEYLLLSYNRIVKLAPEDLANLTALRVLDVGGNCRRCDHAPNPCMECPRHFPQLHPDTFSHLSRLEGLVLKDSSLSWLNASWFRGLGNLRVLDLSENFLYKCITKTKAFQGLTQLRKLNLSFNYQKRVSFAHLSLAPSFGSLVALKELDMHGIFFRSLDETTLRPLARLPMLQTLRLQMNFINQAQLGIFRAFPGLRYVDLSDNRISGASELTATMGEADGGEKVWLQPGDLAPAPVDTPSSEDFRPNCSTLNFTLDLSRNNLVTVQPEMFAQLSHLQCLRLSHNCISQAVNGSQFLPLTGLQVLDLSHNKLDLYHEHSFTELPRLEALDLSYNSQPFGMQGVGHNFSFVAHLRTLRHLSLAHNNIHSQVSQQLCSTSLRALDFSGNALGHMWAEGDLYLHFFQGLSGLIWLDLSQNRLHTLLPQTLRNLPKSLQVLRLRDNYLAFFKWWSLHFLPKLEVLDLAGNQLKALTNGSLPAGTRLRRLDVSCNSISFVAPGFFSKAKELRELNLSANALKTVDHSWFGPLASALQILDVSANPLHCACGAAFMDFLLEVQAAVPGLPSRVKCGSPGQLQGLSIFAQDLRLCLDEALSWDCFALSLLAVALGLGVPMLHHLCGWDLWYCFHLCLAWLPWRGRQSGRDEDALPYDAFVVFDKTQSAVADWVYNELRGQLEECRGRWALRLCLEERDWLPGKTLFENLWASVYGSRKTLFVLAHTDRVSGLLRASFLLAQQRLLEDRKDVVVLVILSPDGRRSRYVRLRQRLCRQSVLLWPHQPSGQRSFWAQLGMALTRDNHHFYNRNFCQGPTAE

[4] = HEK-Blue cells overexpressing human TLR7, SEAP reporter, gardiquimod 7.5 μM
[5] = HEK-Blue cells overexpressing human TLR8, SEAP reporter, R848 15.9 μM
[6] = HEK-Blue cells overexpressing human TLR9, SEAP reporter, ODN2006 5 nM
[7] = HEK-Blue cells overexpressing human TLR7, gardiquimod 7.5 μM stimulation, SEAP reporter
[8] = HEK-Blue cells overexpressing human TLR8, R848 15.9 μM stimulation, SEAP reporter
[9] = HEK-Blue cells overexpressing human TLR9, ODN2006 5 nM stimulation, SEAP reporter
[10] = HEK-Blue human TLR7 cells, gardiquimod 7.5 μM
[11] = HEK-Blue human TLR8 cells, R848 15.9 μM
[12] = HEK-Blue human TLR9 cells, ODN2006 5 nM

Sequence of human TLR7 (Q9NYK1 27-1049): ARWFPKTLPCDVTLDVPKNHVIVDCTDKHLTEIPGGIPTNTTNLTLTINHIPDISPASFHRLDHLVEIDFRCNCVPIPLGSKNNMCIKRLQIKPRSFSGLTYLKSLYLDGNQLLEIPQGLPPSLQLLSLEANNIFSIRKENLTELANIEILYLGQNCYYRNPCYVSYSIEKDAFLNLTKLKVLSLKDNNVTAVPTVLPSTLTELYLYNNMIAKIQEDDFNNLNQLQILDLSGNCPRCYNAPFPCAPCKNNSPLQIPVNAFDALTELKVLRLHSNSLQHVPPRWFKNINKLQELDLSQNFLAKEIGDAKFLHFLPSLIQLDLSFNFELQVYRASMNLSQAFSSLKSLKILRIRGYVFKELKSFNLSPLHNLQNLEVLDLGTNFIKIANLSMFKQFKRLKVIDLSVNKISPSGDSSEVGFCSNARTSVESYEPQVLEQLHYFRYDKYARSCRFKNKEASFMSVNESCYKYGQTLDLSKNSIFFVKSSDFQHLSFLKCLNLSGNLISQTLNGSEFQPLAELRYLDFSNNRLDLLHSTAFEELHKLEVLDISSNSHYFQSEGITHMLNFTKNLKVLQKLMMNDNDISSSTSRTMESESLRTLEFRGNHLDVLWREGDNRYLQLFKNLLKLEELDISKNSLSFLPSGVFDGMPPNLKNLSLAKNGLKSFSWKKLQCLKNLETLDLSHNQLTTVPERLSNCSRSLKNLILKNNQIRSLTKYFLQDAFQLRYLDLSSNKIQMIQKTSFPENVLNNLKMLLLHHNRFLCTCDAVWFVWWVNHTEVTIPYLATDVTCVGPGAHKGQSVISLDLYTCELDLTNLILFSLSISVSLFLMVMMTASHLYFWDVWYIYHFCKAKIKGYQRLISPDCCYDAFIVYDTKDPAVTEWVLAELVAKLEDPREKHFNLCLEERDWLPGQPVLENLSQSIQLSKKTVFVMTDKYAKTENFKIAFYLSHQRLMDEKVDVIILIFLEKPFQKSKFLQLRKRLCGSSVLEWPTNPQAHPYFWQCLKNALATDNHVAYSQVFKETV

SMILES	IC50 [1, 4] [nM]	IC50 [2, 5] [nM]	IC50 [3, 6] [nM]	IC50 [1, 7] [nM]	IC50 [2, 8] [nM]	IC50 [3, 9] [nM]	IC50 [1, 10] [nM]	IC50 [2, 11] [nM]	IC50 [3, 12] [nM]
Cc1c(-c2[nH]c3ccc(CCC4CN(CC(C)(C)O)C4)nc3c2C(C)C)cn2ncnc2c1C [Example 701]	49	15	1750	–	–	–	–	–	–
Cc1c(-c2[nH]c3ccc(N4CCN(C(=O)CN5CCCC5)CC4)nc3c2C(C)C)cn2ncnc2c1C [Example 145]	–	–	–	1.5	0.49	8200	–	–	–
Cc1c(-c2[nH]c3ccc(C4CCC(NCC(=O)N(C)C)CC4)nc3c2C(C)C)cn2ncnc2c1C (stereo not drawn) [Example 354]	–	–	–	1	2.3	790	–	–	–
COc1cc(-c2[nH]c3ccc(C4CCC(NCC5(C)COC5)C4)nc3c2C(C)C)cn2ncnc12 (stereo not drawn) [Example 728]	0.74	0.67	3540	–	–	–	–	–	–
Cc1c(-c2[nH]c3ccc(N4[C@H](C)CNC[C@H]4C)nc3c2C(C)C)cn2ncnc2c1C [Example 861]	–	–	–	–	–	–	0.31	4.2	5010
Cc1c(-c2[nH]c3ccc(N4CCN(C(=O)CN5CCCC5)[C@H](C)C4)nc3c2C(C)C)cn2ncnc2c1C [Example 941]	–	–	–	–	–	–	0.66	0.66	7200
Cc1c(-c2[nH]c3ccc(N4CCN(CC#N)C[C@@H]4C)nc3c2C(C)C)cn2ncnc2c1C [Example 810]	–	–	–	–	–	–	0.64	0.63	7360
Cc1c(-c2[nH]c3ccc(N4CCN(C(=O)CN(C)C(C)(C)C)C[C@H]4C)nc3c2C(C)C)cn2ncnc2c1C [Example 934]	–	–	–	–	–	–	0.86	8.6	9750
COc1cc(-c2[nH]c3ccc(C4CCC(NCC#N)C4)nc3c2C(C)C)cn2ncnc12 (stereo not drawn) [Example 716]	0.74	6.7	2530	–	–	–	–	–	–
COc1cc(-c2[nH]c3ccc(OC4CN(C)C4)nc3c2C(C)C)cn2ncnc12 [Example 596, 6-(3-isopropyl-5-((1-methylazetidin-3-yl)oxy)-1H-pyrrolo[3,2-b]pyridin-2-yl)-8-methoxy-[1,2,4]triazolo[1,5-a]pyridine]	13	67	3200	–	–	–	–	–	–
Cc1cc(-c2[nH]c3ccc(C4CCC(N(C)C5COC5)CC4)nc3c2C(C)C)cn(C)c1=O (stereo not drawn) [Example 250]	–	–	–	26	57	13700	–	–	–
Cc1c(-c2[nH]c3ccc(C4CCC(N5CCN(C)C(=O)C5)CC4)nc3c2C(C)C)cn2ncnc2c1C (stereo not drawn) [Example 442]	3.7	3.5	18300	–	–	–	–	–	–
Cc1cc2[nH]c(-c3cn4ncnc4c(C)c3C)c(C(C)C)c2nc1C1CCC(NC2COC2)CC1 (stereo not drawn) [Example 503]	1.4	9.2	2500	–	–	–	–	–	–
Cc1c(-c2[nH]c3ccc(C4CCC(N(C)CCC#N)CC4)nc3c2C(C)C)cn2ncnc2c1C (stereo not drawn) [Example 361]	–	–	–	0.79	1	1250	–	–	–
Cc1c(-c2[nH]c3ccc(N4CC5(C4)CN(C(C)C)C5)nc3c2C(C)C)cn2ncnc2c1C [Example 1003]	–	–	–	–	–	–	1.8	3.7	3160
Cc1cc(-c2[nH]c3ccc(C4CN(CC#N)CCO4)nc3c2C(C)C)cn(C)c1=O (stereo not drawn) [Example 670]	56	58	> 50000	–	–	–	–	–	–
Cc1c(-c2[nH]c3ccc(N4CCN(C(=O)CN(C)CC(C)C)CC4)nc3c2C(C)C)cn2ncnc2c1C [Example 875]	–	–	–	–	–	–	6.6	3.2	40500
Cc1c(-c2[nH]c3ccc(C4CCC(NCCC(F)(F)F)CC4)nc3c2C(C)C)cn2ncnc2c1C (stereo not drawn) [Example 373]	–	–	–	8.6	8.3	1960	–	–	–
Cc1cc(-c2[nH]c3ccc(C4CCNCC4)nc3c2C(C)C)cn2cnnc12 [Example 518]	1.6	32	721	–	–	–	–	–	–

SMILES	IC50 [1, 4] [nM]	IC50 [2, 5] [nM]	IC50 [3, 6] [nM]	IC50 [1, 7] [nM]	IC50 [2, 8] [nM]	IC50 [3, 9] [nM]	IC50 [1, 10] [nM]	IC50 [2, 11] [nM]	IC50 [3, 12] [nM]
Cc1c(-c2[nH]c3ccc(N4CC(N(C)C(=O)CN(C)C)C4)nc3c2C(C)C)cn2ncnc2c1C [Example 19]	–	–	–	125	73	6020	–	–	–
COc1cc(-c2[nH]c3ccc(C4CCC(NC5COC5)CC4)nc3c2C(C)C)cn2ncnc12 (stereo not drawn) [Example 178]	–	–	–	0.48	1.8	895	–	–	–
Cc1c(-c2[nH]c3ccc(C4CCC5(CC4)CNC5)nc3c2C(C)C)cn2ncnc2c1C [Example 491, 6-(3-isopropyl-5-(2-azaspiro[3.5]nonan-7-yl)-1H-pyrrolo[3,2-b]pyridin-2-yl)-7,8-dimethyl-[1,2,4]triazolo[1,5-a]pyridine]	0.89	8	677	–	–	–	–	–	–
Cc1c(-c2[nH]c3ccc(N4CC5CCC(C4)N5)nc3c2C(C)C)cn2ncnc2c1C [Example 973]	–	–	–	–	–	–	6.7	1.7	15800
COC1CN(C2CCC(c3ccc4[nH]c(-c5cn6ncnc6c(C)c5C)c(C(C)C)c4n3)CC2)C1 (stereo not drawn) [Example 1045]	–	–	–	–	–	–	4.8	3.6	3240
CCN(CC)CC(=O)N1CCN(c2ccc3[nH]c(-c4cn5ncnc5c(C)c4C)c(C(C)C)c3n2)C[C@@H]1C [Example 898]	–	–	–	–	–	–	2.1	3.2	17300
Cc1c(-c2[nH]c3ccc(C4CCC(NCC(=O)NC(C)(C)C)CC4)nc3c2C(C)C)cn2ncnc2c1C (stereo not drawn) [Example 489]	20	20	6670	–	–	–	–	–	–
Cc1c(-c2[nH]c3ccc(N4C[C@H]5CCC[C@H](C4)N5)nc3c2C(C)C)cn2ncnc2c1C [Example 974]	–	–	–	–	–	–	1.1	0.71	3920
CNC1CCC(c2nc3c(C(C)C)c(-c4cc(OC)c5ncnn5c4)[nH]c3cc2F)CC1 (stereo not drawn) [Example 348]	–	–	–	0.82	8.3	6960	–	–	–
CC(C)c1c(-c2cn(CC#N)c3ncccc23)[nH]c2ccc(C3CCC(NCC(=O)N(C)C)CC3)nc12 (stereo not drawn) [Example 272]	–	–	–	76	50	398	–	–	–
Cc1c(-c2[nH]c3ccc(N4CCN[C@H](CO)C4)nc3c2C(C)C)cn2ncnc2c1C [Example 994]	–	–	–	–	–	–	13	3.4	11800
Cc1c(-c2[nH]c3ccc(C4CCC(N(C)CCO)CC4)nc3c2C(C)C)cn2ncnc2c1C (stereo not drawn) [Example 365]	–	–	–	4.2	7.9	3200	–	–	–
CC(C)c1c(-c2cn(C)c3ncccc23)[nH]c2ccc(C3CCC(NCC(C)(C)S(C)(=O)=O)CC3)nc12 (stereo not drawn) [Example 285]	–	–	–	3.6	5.5	2310	–	–	–
COc1cc(-c2[nH]c3cc(C)c(C(=O)N(C)CCN(C)C)nc3c2C(C)C)cn2ncnc12 [Example 732]	10	70	4830	–	–	–	–	–	–
CC(C)c1c(-c2cn(C)c3ncccc23)[nH]c2ccc(N3CC(NC4CCOCC4)C3)nc12 [Example 36]	–	–	–	> 3120	> 3120	22100	–	–	–
Cc1c(-c2[nH]c3ccc(N4CCC(N(C)CC(=O)N(C)C)CC4)nc3c2C(C)C)cn2ncnc2c1C [Example 997]	–	–	–	–	–	–	2.4	2.4	13600
COc1cc(-c2[nH]c3ccc(C4CCC(NCc5cnco5)CC4)nc3c2C(C)C)cn2ncnc12 (stereo not drawn) [Example 204]	–	–	–	0.98	2.9	1330	–	–	–
Cc1c(-c2[nH]c3ccc(C4CCC(N(CC#N)CC(=O)N(C)C)CC4)nc3c2C(C)C)cn2ncnc2c1C (stereo not drawn) [Example 456]	2.6	8.1	7730	–	–	–	–	–	–
COc1cc(-c2[nH]c3ccc(OCC4CCN(CC(=O)N(C)C)CC4)nc3c2C(C)C)cn2ncnc12 [Example 602, 2-(4-(((3-isopropyl-2-(8-methoxy-[1,2,4]triazolo[1,5-a]pyridin-6-yl)-1H-pyrrolo[3,2-b]pyridin-5-yl)oxy)methyl)piperidin-1-yl)-N,N-dimethylacetamide]	1.2	6.8	1430	–	–	–	–	–	–
